In US20060276534A1, “Methods of decreasing calcification” (Amgen Inc., priority 2005, published 2006):

Experiments:
adenine-induced CKD rats [1] = test: Aortic vascular calcification by bone mineral density (PIXImus) in adenine-induced CKD model; format: in vivo, rat; conditions: adenine diet rats; Compound B 3 mg/kg p.o. daily 21 days, compared to vehicle on the same diet
Description: (§1) Male Sprague-Dawley rats (Charles River Laboratories) weighing 300-350 grams were used in these studies. All animals received standard lab chow (Harlan Teklad, Madison, Wis.) prior to the start of the studies. The standard lab chow was changed to a standard rodent lab chow that contained 0.75% adenine. Animals received food and water ad libitum. The animal protocol was approved by the Institutional Animal Care and Use Committee of Amgen Inc. (Thousand Oaks, Calif.).
(§2) Prior to placing animals on an adenine diet or administration of Compound B or vehicle baseline determininations of serum P, Ca, BUN, PTH and creatinine were performed. Blood was removed from the orbital sinus under while the rats were under anesthetisa (2% isoflurane in O2). […] For measurement of blood ionized calcium levels, blood was collected from the abdominal aorta under anesthesthia (2% isofluorane in O2), prior to sacrifice, with heparinized capillary tubes and analyzed using a Ciba-Corning 634 ISE Ca^++/pH Analyzer (Ciba-Corning Diagnostics Corp, Medfield, Mass.). […] PTH levels were quantified according to the vendor's instructions using a rat PTH(1-34) immunoradiometric assay kit (Immutopics, San Clemente, CA). BUN, creatinine, and phosphorus levels were determined using a blood chemistry analyzer (Olympus AU 400, Melville, N.Y.). […]

adenine-induced CKD rats [2] = test: Parathyroid hyperplasia (PCNA immunohistochemistry, parathyroid weight) in adenine-induced CKD model; format: in vivo, rat; conditions: adenine diet rats, vs vehicle
Description: as §1
(§3) Animals were fed the adenine containing chow for 21 days, and prior to the start of the adenine diet animals were pre-bleed for baseline measurements of ionized calcium, PTH, BUN and creatinine and phosphorus levels (FIG. 9).
as §2, with “performed.” for “performed. Blood was removed from the orbital sinus under while the rats were under anesthetisa (2% isoflurane in O2).”, “CA).” for “CA). BUN, creatinine, and phosphorus levels were determined using a blood chemistry analyzer (Olympus AU 400, Melville, N.Y.).”

adenine-induced CKD rats [3] = test: PTH and serum chemistry profile in adenine-induced CKD model with vascular calcification; format: in vivo, rat; conditions: adenine diet rats, Compound B 3 mg/kg p.o. daily 21 days, vs vehicle
Description: as §1, §3
Prior to placing animals on an adenine diet or administration of Compound B or vehicle baseline determininations of serum P, Ca, BUN, PTH and creatinine were performed. Blood was removed from the orbital sinus under while the rats were under anesthetisa (2% isoflurane in O2). After the time 0 bleed, animals were placed on the adenine containing chow and were administered Compound B at 3 mg/kg p.o. or vehicle (12% captisol in water) daily for 21 days. At the end of the study (day 21) animals were sacrificed and the aorta and parathyroid glands were removed for histopathological analysis. Blood was removed for blood chemistries and PTH determinations. For measurement of blood ionized calcium levels, blood was collected from the abdominal aorta under anesthesthia (2% isofluorane in O2), prior to sacrifice, with heparinized capillary tubes and analyzed using a Ciba-Corning 634 ISE Ca^++/pH Analyzer (Ciba-Corning Diagnostics Corp, Medfield, Mass.). Separately, blood was collected for PTH, blood urea nitrogen (BUN), creatinine, and serum phosphorus levels into SST (clot activator) brand blood tubes (BD, Franklin Lakes, N.J.) and allowed to clot. Serum was removed and stored at −70° C. until assayed. PTH levels were quantified according to the vendor's instructions using a rat PTH(1-34) immunoradiometric assay kit (Immutopics, San Clemente, CA). BUN, creatinine, and phosphorus levels were determined using a blood chemistry analyzer (Olympus AU 400, Melville, N.Y.).

5/6 Nx rats [4] = test: Serum PTH, ionized Ca, P and creatinine in 5/6 Nx rats given paricalcitol and/or Compound B (Example 3); conditions: 14 days
5/6 Nx rats [5] = test: Soft tissue mineralization by Von Kossa staining in 5/6 Nx rats (Example 4); format: in vivo, rat; conditions: 14 days
Description: Wistar rats (200-250g), fed a 0.6% Ca and 1.2% P diet, were 5/6 nephrectomized (5/6 Nx).

5/6 Nx rats [6] = test: Ca and P content of thoracic aorta in 5/6 Nx rats given paricalcitol and/or Compound B (Example 3); format: in vivo, rat
Description: Wistar rats (200-250g), fed a 0.6% Ca and 1.2% P diet, were 5/6 nephrectomized (5/6 Nx) or sham-operated (sham).

[7] = 5/6 Nx rats, compared to 5/6 Nx+vehicle
[8] = 5/6Nx rats, paricalcitol 240 ng/kg every 48 hr ip, Compound B 1.5 mg/kg every 48 hr sc
[9] = serum, 5/6Nx rats, paricalcitol 240 ng/kg every 48 hr ip, Compound B 1.5 mg/kg every 48 hr sc
[10] = Compound B 1.5 mg/kg every 48 hr sc to calcitriol-treated 5/6 Nx rats
[11] = 5/6 Nx rats, 14 days, compared to vehicle treated 5/6 Nx animals (Compound B also vs sham)
[12] = Compound B administered to paricalcitol treated 5/6 Nx rats, compared to 5/6 Nx rats treated with paricalcitol
[13] = thoracic aorta, 5/6Nx rats, 14 days, paricalcitol 240 ng/kg every 48 hr ip, Compound B 1.5 mg/kg every 48 hr sc

- Creatinine levels (adenine-induced CKD rats [3]; p<0.05): decrease
- Blood urea nitrogen (BUN) (adenine-induced CKD rats [3]; p>0.05): no significant treatment effect
- Creatinine, change in words (5/6 Nx rats [4]; [7]): no changes
- Creatinine (5/6 Nx rats [4]; [8]): 0.98 ± 0.1 mg/dL
Structure (SMILES): COc1ccc(CNC(C)c2ccccc2)cc1-c1ccc(C(F)(F)F)cc1 (stereo not drawn) [Compound B, N-((6-(methyloxy)-4′-(trifluoromethyl)-1,1′-biphenyl-3-yl)methyl)-1-phenylethanamine]
- Reduction aortic bone mineral density (adenine-induced CKD rats [1]): 75%
- Number of PCNA-positive cells (parathyroid) (adenine-induced CKD rats [2]; Compound B 3 mg/kg p.o. daily 3 weeks): significantly (p<0.01) reduced
- Parathyroid weights (adenine-induced CKD rats [2]; Compound B 3 mg/kg p.o. daily 21 days): significantly decreased
- Serum P levels (adenine-induced CKD rats [3]): no significant (p>0.05) treatment effect
- Serum PTH levels (adenine-induced CKD rats [3]; p<0.0001): significantly reduced
- Total serum calcium (adenine-induced CKD rats [3]; p=0.0001): significantly reduced
- Serum ionized calcium (iCa) (adenine-induced CKD rats [3]; p=0.004): significantly reduced
- Blood ionized calcium, change in words (5/6 Nx rats [4]; [7]): no changes
- Serum P levels, change in words (5/6 Nx rats [4]; [7]): no changes
- Serum PTH levels, change in words (5/6 Nx rats [4]; [7]): significantly (p<0.05) decreased
- Ionized Ca (5/6 Nx rats [4]; [8]): 0.93 ± 0.06 mM
- P (5/6 Nx rats [4]; [9]): 9.5 ± 1.5 mg/dL
- PTH (5/6 Nx rats [4]; [9]): 45 ± 1.8 pg/mL
- Heart mineralization (Von Kossa staining) (5/6 Nx rats [5]; [10]): reduced
- Kidney mineralization (Von Kossa staining) (5/6 Nx rats [5]; [10]): reduced
- Lung mineralization (Von Kossa staining) (5/6 Nx rats [5]; [10]): reduced
- Kidney mineralization (Von Kossa staining) (5/6 Nx rats [5]; Compound B 1.5 mg/kg every 48 hr sc to paricalcitol-treated 5/6 Nx rats): reduced
- Aortic Ca content, change in words (5/6 Nx rats [6]; [11]): did not significantly change
- Aortic P content, change in words (5/6 Nx rats [6]; [11]): did not significantly change
- Aortic Ca content, change in words (5/6 Nx rats [6]; [12]): significantly (p<0.05) reduced
- Aortic P content, change in words (5/6 Nx rats [6]; [12]): significantly (p<0.05) reduced
- Aortic Ca (5/6 Nx rats [6]; [13]): 2.6 ± 0.16 mg/g
- Aortic P (5/6 Nx rats [6]; [13]): 0.33 ± 0.05 mg/g
